# Measured values: patent US20240216320A1, “COMPOSITIONS AND METHODS FOR TREATING SICKLE CELL DISEASE” (Augusta University Research Institute, Inc., priority 2019, published 2024)
# Legend:
# [1] = test system: intracellular heme in K562 cells; assay: QuantiChrom heme quantitation assay in K562 cells; format: cell-based; details: for heme levels in control experiments: ALA 0.5 and 2.0 mM, hemin 75 μM
# Experimental: The total cellular heme content was determined using the QuantiChrom™ Heme Assay Kit (DIHM-250, BioAssay Systems, Hayward, CA) per the manufacturer's instructions. Briefly, 25 μL of cellular lysate was mixed with 100 μL of detection reagent. The mixture was incubated at room temperature for 5 min followed by measuring the absorbance at 400 nm on a microplate reader. The total heme concentration was calculated based on a formula provided by the manufacturer: Heme concentration=(OD^sample−OD^blank)/(OD^calibrator−OD^blank)×125× dilution factor. This value was normalized by total protein in each sample.
# [2] = test system: γ-globin mRNA in K562 cells; assay: γ-globin transcription by RT-qPCR in K562 cells; format: cell-based; details: 48 h
# Experimental: Initial studies were conducted in K562 cells to determine the ability of AN-233 to induce γ-globin transcription and HbF expression. K562 cells display characteristics of erythroid cells including expression of the ε, γ and α globin genes and these cells are useful for initial drug screening and discovery of potential HbF inducers.
# K562 cells were treated with AN-233 for 48 h and globin gene transcription was analyzed by RT-qPCR. […]
# (§1) K562 cells were cultured in Iscove's Modified Dulbecco medium (IMDM) with 10% fetal bovine serum, penicillin (100 U/mL) and streptomycin (0.1 mg/mL). Drug inductions for K562 cells were conducted for 48 h and cell viability evaluated with 0.4% Trypan blue exclusion. Cell counts were performed a dual chamber apparatus and the percentage viability obtained using an Automated Cell Counter (Bio-Rad).
# Total RNA was extracted from cells using Trizol (Ambion, Carlsbad CA) and analyzed by RT-qPCR as previously published by our group. Gene-specific primers were used to quantify mRNA levels for γ-globin, β-globin and internal control glyceraldehyde-3-phosphate de-hydrogenase (GAPDH). All mRNA levels were normalized to GAPDH before analysis.
# [3] = test system: HbF in K562 cells; assay: Western blot of HbF levels in K562 cells; format: cell-based; details: 48 h, AN-233 dose-dependent
# Experimental: as §1
# (§2) Western blot analysis was performed using whole cell lysates generated with RIPA buffer (ThermoScientific, Rockford, IL) supplemented with proteinase and phosphatase inhibitor cocktails. For histone acetylation studies, nuclear lysates were prepared by suspending cells in buffer containing 20 mM HEPES, pH 7.9, 50 mM KCl, 420 mM NaCl, 0.1 mM EDTA, 1 mM DTT, 10% glycerol and protease inhibitor mixture for 30 min, followed by centrifugation. Antibodies against HbF (51-7), HbA (37-8), and Tata binding protein (TBP; N-12) were purchased from Santa Cruz Biotechnology (Dallas TX); antibodies against β-actin (A5316) and rabbit IgG (18140) were purchased from Sigma (St. Louis MO). Acetylated histone H3 (AcH3; 06-599) and AcH4 (06-866) antibodies were purchased from Millipore (Burlington, MA).
# [4] = test system: eIF2αP (eukaryotic translation initiation factor 2α phosphorylation); assay: Western blot of eIF2αP in K562 cells; format: cell-based; details: dose-dependent, maximal
# Experimental: as §2
# (§3) Since the biosynthesis of heme prosthetic group requires ALA as a precursor and AN-233 is hydrolyzed to BA and ALA, it was next determined whether heme levels are altered after treatments of K562 cells. Using a colorimetric quantitative assay, a 1.5-fold and 1.8-fold increase (p<0.05) in intracellular heme was observed after 0.25 mM and 0.5 mM AN-233 treatment respectively (FIG. 2A). […] Therefore, K562 cells were treated with AN-233 and phosphorylated and total HRI and eIF2αP levels were measured. […]
# [5] = test system: HbF in sickle erythroid precursors; assay: Western blot of HbF in sickle erythroid precursors; format: cell-based, human
# Experimental: (§4) For primary cultures, erythroid precursors were generated from peripheral blood mononuclear cells isolated from discard blood of sickle patients under an IRB exempt protocol. These cells were cultured in a two-phase liquid culture system previously published (Li, B., et al., Haematologica 103:e384-e387 (2018)).
# (§5) During phase 1, cells were grown in Iscove's Dulecco Media with 15% fetal bovine serum, 15% human AB serum, 10 ng/mL interleukin-3, 50 ng/mL stem cell factor and 2 IU/mL of erythropoietin (Peprotech, Rocky Hill NJ). Phase 2 of culture initiated on day 7 with a similar medium without stem cell factor and interleukin-3. On day 8, erythroid precursors were treated with AN-233 (0.125 mM and 0.25 mM), ethanol (EtOH; […] and 0.016%) and the positive control HU (100 μM) for 48 h and harvested for the various analyses.
# (§6) Western blot analysis was performed using whole cell lysates generated with RIPA buffer (ThermoScientific, Rockford, IL) supplemented with proteinase and phosphatase inhibitor cocktails. For histone acetylation studies, nuclear lysates were prepared by suspending cells in buffer containing 20 mM HEPES, pH 7.9, 50 mM KCl, 420 mM NaCl, 0.1 mM EDTA, 1 mM DTT, 10% glycerol and protease inhibitor mixture for 30 min, followed by centrifugation. […]
# [6] = test system: LCR-HS2; assay: ChIP assay, histone acetylation in LCR-HS2; format: cell-based, human
# Experimental: (§7) ChIP assay was performed as previously published by our group with immunoprecipitations for AcH3, AcH4 and TBP antibodies (Santa Cruz Biotechnology) and rabbit IgG as a control. Primers used to quantify in vivo chromatin modifications are as follows: locus control region DNase I hypersensitive site 2 (LCR-HS2) forward […] (SEQ ID NO:1) and reverse […] (SEQ ID NO:2), γ-globin promoter (forward CTGAAACGGTCCCTGGCTA (SEQ ID NO:3), reverse […] (SEQ ID NO:4)), and β-globin promoter (forward […] (SEQ ID NO:5), reverse […] (SEQ ID NO:6)).
# [7] = test system: Heme-regulated inhibitor (HRI) kinase; assay: Western blot of HRI in K562 cells; format: cell-based; details: dose-dependent, maximal
# Experimental: as §2, §3
# [8] = test system: β-globin gene promoter; assay: ChIP assay, histone acetylation in β-globin gene promoter; format: cell-based, human
# Experimental: as §7
# [9] = test system: anemic C57BL mouse model; details: cited from earlier work
# [10] = test system: β-YAC transgenic mice; assay: Toxicity, body weight, blood counts and reticulocytes in β-YAC transgenic mice
# Experimental: The β-YAC is a transgenic mouse model containing the full-length 81 kb human β-globin gene locus including the LCR and surrounding region. The five functional human globin genes 5′-ε-Gγ-Aγ-[…]-β-3′ are present and undergo normal developmental regulation with the γ-globin gene silenced shortly after birth. β-YAC mice (5-6 months old) were administered AN-233 suspended in water (200 or 300 mg/kg) 5 days/week for 4 weeks by intraperitoneal injection; five mice per group with 3 males and 2 females were treated. Hydroxyurea (100 mg/kg) was included as a positive control. Blood was collected by tail bleed at week 0, 2 and 4 and analyzed for automated complete blood counts with differential using a Micros 60 machine (HORIBA Medical/ABX Diagnostics). The level of F-cells and MFI were performed by flow cytometry. For reticulocyte counts, whole blood was stained with acridine orange and flow cytometry performed on an LSR-II flow cytometer (BD Biosciences).
# [11] = test system: HbS in sickle erythroid precursors; assay: Western blot of HbS in sickle erythroid precursors; format: cell-based, human; details: 0.25 mM
# Experimental: as §4, §5, §6
# [12] = test system: HbF in K562 cells; assay: HbF positive cells (F-cells) by flow cytometry in K562 cells; format: cell-based
# Experimental: as §1
# (§8) To measure percent HbF positive cells (F-cells), K562 cells and erythroid precursors were fixed with 1% formaldehyde, permeabilized with ice-cold acetone:methanol (4:1 ratio) and stained with fluorescein isothiocyanate (FITC) anti-HbF antibody (ab19365, Abcam Cambridge MA) and isotype control IgG antibody (MBS524511, MyBioSource, San Diego CA) was used to detect non-specific staining. The F-cells levels and HbF protein levels measured by mean fluorescence intensity (MFI) were analyzed on an LSR-II flow cytometer (BD Biosciences, San Jose CA) and FlowJo analysis to generate quantitative data.
# [13] = test system: HbF in β-YAC transgenic mice; assay: HbF induction (F-cells, MFI) in β-YAC transgenic mice; format: in vivo, mouse
# [14] = test system: acetylated histone H3 (AcH3); assay: Western blot of acetylated histone H3 in nuclear lysates of sickle erythroid cells; format: cell-based, human
# Experimental: as §2
# [15] = test system: γ-globin promoter; assay: ChIP assay, histone acetylation in γ-globin promoter; format: cell-based, human; details: for enrichment for AcH3 in the γ-globin promoter: compared to IgG control, dose-dependent
# Experimental: as §7
# [16] = test system: sickle erythroid precursors; assay: In vitro sickling assay under 2% oxygen; format: cell-based, human
# Experimental: In vitro sickling studies were conducted as previously published by our group (Zhu, X., et al., Blood, 131:558-562 (2018)). Briefly, after drug inductions of sickle erythroid pre-cursors for 48 h, cells were incubated in 2% oxygen overnight and then fixed with 2% formaldehyde. Erythroid morphology was evaluated microscopically and the number of sickled cells per high power field manually counted for 1000 cells, per triplicates per condition.
# [17] = test system: HbF in sickle erythroid precursors; assay: F-cells and HbF MFI by flow cytometry in sickle erythroid precursors; format: cell-based, human
# Experimental: as §4, §5, §8
# [18] = test system: p38 MAPK; assay: Western blot of phosphorylated p38 MAPK in K562 cells; format: cell-based; details: 0.25 mM
# Experimental: as §2
# The second active metabolite of AN-233 hydrolysis is BA. It was previously reported that HbF induction by BA occurs through p38 MAPK activation.
# [19] = test system: HbF in patients with β-thalassemia; details: cited from earlier work
compound,measurement,setting,value
"NCC(=O)CCC(=O)O [ALA, δ-aminolevulinate]",heme levels in control experiments,[1],increased heme levels
same,increase in γ-globin mRNA levels,[2]; 0.125 mM,1.5 fold
same,increase in HbF by Western blot,[3],6 fold
"CCCC(=O)OC(C)OC(=O)CCC(=O)CN (stereo not drawn) [AN-233, 1-(butyryloxy)ethyl-5-amino-4-oxopentanoate]",increase in intracellular heme,[1]; 0.25 mM,1.5 fold
same,increase in intracellular heme,[1]; 0.5 mM,1.8 fold
same,decrease in eIF2αP levels,[4],50%
same,increase in HbF protein by Western blot,"[5]; sickle erythroid precursors, 0.25 mM",2.6 fold
same,increase in AcH3 in LCR-HS2,[6],12.5 fold
same,increase in AcH4 in LCR-HS2,[6],5 fold
same,decrease in HRI,[7],52%
same,histone acetylation at the β-globin gene promoter,[8],no significant changes
same,toxicity,"[9]; anemic C57BL mice, oral, 4 weeks, up to 400 mg/kg",without toxicity
same,hemoglobin levels,"[9]; anemic C57BL mice, oral, 4 weeks",improved
same,histone acetylation in spleen tissue,[9]; tissue harvested 4 to 6 h after one oral dose,histone hyper-acetylation
same,anti-proliferative effects on erythropoiesis,"[10]; mouse, in vivo",without observing anti-proliferative effects
same,increase in reticulocytes,"[10]; β-YAC mice, 300 mg/kg ip, week 4, p=0.01",1.8 fold
same,HbS expression by Western blot,[11],without changing HbS expression
same,F-cells,"[12]; K562 cells, 0.125 and 0.25 mM, 48 h, maximum, 10% in EtOH treated controls",19%
same,increase in γ-globin mRNA levels,[2]; 0.125 mM,1.8 fold
same,increase in γ-globin mRNA levels,[2]; 0.25 mM,2.0 fold
same,increase in F-cells,[13]; 200 mg/kg ip,3.4 fold
same,increase in HbF measured by MFI,[13]; 200 mg/kg ip,1.4 fold
same,F-cells,"[13]; 200 mg/kg ip, from 15.46%",52.5%
same,HbF measured by MFI,"[13]; 200 mg/kg ip, from 588 units",824 units
same,increase in F-cells,[13]; 300 mg/kg ip,4.5 fold
same,increase in HbF measured by MFI,[13]; 300 mg/kg ip,1.7 fold
same,F-cells,"[13]; 300 mg/kg ip, from 13.5%",60.6%
same,HbF measured by MFI,"[13]; 300 mg/kg ip, from 447 units",760 units
same,global AcH3 levels in nuclear lysates,[14],increased global AcH3 levels
same,AcH4 levels in the γ-globin promoter,[15]; ChIP,increased
same,enrichment for AcH3 in the γ-globin promoter,[15]; first (lower) value,12 fold
same,enrichment for AcH3 in the γ-globin promoter,[15]; second (higher) value,30 fold
same,reduction of the percentage of sickled erythroid precursors,[16]; 2% oxygen overnight,up to 56%
same,increase in F-cells,"[17]; sickle erythroid precursors, 0.125 and 0.25 mM, 48 h, maximal",2 fold
same,F-cells,"[17]; sickle erythroid precursors, 0.125 and 0.25 mM, maximal, from 16.31%",32.5%
same,increase in HbF measured by MFI,"[17]; sickle erythroid precursors, 48 h",1.5 fold
same,increase in phosphorylated p38 MAPK,[18],1.4 fold
"CCCC(=O)O [BA, butyric acid]",increase in γ-globin mRNA levels,[2]; 0.125 mM,3 fold
same,increase in HbF by Western blot,[3],2 fold
"NC(=O)NO [HU, hydroxyurea]","blood counts (Hb, hematocrit, white blood cells, platelets)","[10]; β-YAC mice, 4-week treatment, AN-233 at both doses, HU 100 mg/kg","decreased total Hb, hematocrit, and white blood cell and platelet counts"
same,increase in reticulocytes,"[10]; β-YAC mice, HU 100 mg/kg ip, week 4, p=0.002",1.9 fold
same,body weights,"[10]; β-YAC mice, ip, 4 weeks of treatment, all groups",normal body weights were maintained
same,γ-globin mRNA induction,[2]; HU control,1.7 fold
same,"anti-sickling effect, compared with AN-233","[16]; 2% oxygen overnight, HU",similar
same,"HbF measured by MFI, compared with AN-233","[17]; sickle erythroid precursors, HU 100 μM",comparable
"C[S+]([O-])c1ccc(-c2nc(-c3ccncc3)c(-c3ccc(F)cc3)[nH]2)cc1 (stereo not drawn) [SB203580, reference compound]",effect on AN-233 HbF protein increase by Western blot,[5]; SB203580 treatment with 0.25 mM AN-233,inhibited
same,decrease in F-cell levels,[12]; pretreatment with SB203580 10 μM followed by 0.25 mM AN-233,30%
same,sickled erythroid progenitor levels after pretreatment,"[16]; SB203580 pretreatment before AN-233, 2% oxygen",higher sickled erythroid progenitor levels
same,effect of pretreatment on F-cells and MFI,"[17]; SB203580 pretreatment, at both AN-233 concentrations",reduced F-cells and MFI levels
CCC(C)(C)C(=O)[O-].[Na+] [sodium dimethylbutyrate],patients with HbF induction,[19],70 % of patients
hemin [reference compound],heme levels in control experiments,[1],increased heme levels
